Source: US20230115176A1 (Ra Pharmaceuticals, Inc., priority 2019, published 2023)

Assays:
[1] = molecular target: human C5 complement protein (Homo sapiens, UniProt P01031); experiment: Surface plasmon resonance (SPR), immobilized human C5, 37° C. (Example 12, Table 21); type: binding; conditions: where a range of compound concentrations were analyzed, the lowest value obtained
Source text: (§1) Compound CU0136 is a racemic mixture of Compound CU0186 and CU0187. Numbers in parenthesis following compound numbers indicate alternate enantiomers (as distinguished by retention time during chromatographical separation).

Human C5 [2] = molecular target: T1, Human C5 (Homo sapiens, UniProt P01031); experiment: Red blood cell (RBC) hemolysis assay, luminescent (Example 13, Table 22); type: cell-based; conditions: sheep EA cells, […] C5-depleted human serum, 0.5 nM human C5, 1 hour 37° C., luminescence; note: 1.5% C5-depleted human serum
T1 construct: purchased Complement Technology
Source text: as §1

purified human C5 = purified human C5 (Homo sapiens, UniProt P01031); experiment: Red blood cell hemolysis assay, optical, absorbance 412 nm (Example 3, Table 6); type: cell-based; conditions: antibody-sensitized sheep erythrocytes, 1.5% human C5 depleted sera, 0.5 nM human C5; average where replicates
Method: Experiments were carried out using a red blood cell (RBC) hemolysis assay to assess compound inhibition of RBC lysis. […] The assay was carried out using 1.5% human C5 depleted sera and 0.5 nM purified human C5.
GVB++ buffer (Complement Technology, Tyler, Tex.) was heated at 37° C. for a minimum of 20 minutes. The human C5 depleted sera and purified human C5 were rapidly thawed at 37° C. and then stored on ice or wet ice, respectively. The compound stock (10 mM, DMSO) was serially diluted in 100% DMSO to obtain ten 6-fold dilutions before addition of GVB++. Sera dilution was prepared by adding 5 mL of GVB++ to a 15 mL conical tube, removing 600 μL of the GVB++ and adding 600 μL of the 100% sera. The tube was mixed by inverting three times. A volume of 25 μL of the diluted sera was added to each well so that the final concentration of sera in the well was 1.5%. C5 dilution was prepared by adding 5 mL of GVB++ to a 15 mL conical tube, removing 4 μL of the GVB++ and adding 4 μL of the C5 stock. The tube was mixed by inverting three times. A volume of 25 μL was added to each well so that the final amount of C5 was 0.5 nM in each well. The antibody-sensitized sheep erythrocytes (EAs) were centrifuged at 1,000× gravity at 22° C. for 3 minutes. The supernatant was pipetted off without disrupting the pellet. The pellet was then resuspended in GVB++ with the same volume removed. Resuspended EAs were mixed by gently inverting the tube.
Five controls were run on each plate: (1) EAs only=100 μL EAs+50 μL GVB++ with 4% DMSO+50 μL GVB++; (2) EA+Sera=100 μL EAs+50 μL GVB++ with 4% DMSO+25 μL Sera dilution+25 μL GVB++; (3) EA+C5=100 μL EAs+50 μL GVB++ with 4% DMSO+25 μL C5 dilution+25 μL GVB++; (4) EA+Sera+C5=100 μL EAs+50 μL GVB++ with 4% DMSO+25 μL Sera dilution+25 μL C5; (5) GVB++ Only=200 μL GVB++. Other wells included: GVB++ with 4% DMSO=20 μL DMSO+480 μL GVB++. All samples were analyzed in duplicate. The compound dose response curve was generated using samples prepared with 100 μL EA+50 μL compound dilution+25 μL C5 dilution+25 μL sera dilution.
Test plates were prepared by adding 100 μL of EAs, 50 μL of compound dilution, 25 μL of sera dilution, and 25 μL of C5 dilution to individual wells of a 96-well tissue culture-treated clear microtitre plate (USA Scientific, Ocala, Fla.) and resuspending by pipetting up and down three times. The samples were incubated at 37° C. for one hour. At the completion of the incubation, the plates were centrifuged at 1,000× gravity for 3 minutes. 100 μl of supernatant were transferred to a new plate and the absorbance was read at 412 nm. Data was fit with a log-logit formula producing a dose-response curve and IC50.
“IC50” refers to the half maximal inhibitory concentration, where the value is the concentration of the inhibitor needed to reduce red blood cell hemolysis by half. Where replicate analysis was conducted, average IC50 values are provided along with standard deviation (SD) values.

Human C5 [3] = molecular target: T1, Human C5; experiment: Surface plasmon resonance (SPR), compounds on immobilized human C5 (Example 2, Table 5); type: binding; conditions: lowest value where a range of compound concentrations were analyzed

T1 sequence (P01031 19-1676): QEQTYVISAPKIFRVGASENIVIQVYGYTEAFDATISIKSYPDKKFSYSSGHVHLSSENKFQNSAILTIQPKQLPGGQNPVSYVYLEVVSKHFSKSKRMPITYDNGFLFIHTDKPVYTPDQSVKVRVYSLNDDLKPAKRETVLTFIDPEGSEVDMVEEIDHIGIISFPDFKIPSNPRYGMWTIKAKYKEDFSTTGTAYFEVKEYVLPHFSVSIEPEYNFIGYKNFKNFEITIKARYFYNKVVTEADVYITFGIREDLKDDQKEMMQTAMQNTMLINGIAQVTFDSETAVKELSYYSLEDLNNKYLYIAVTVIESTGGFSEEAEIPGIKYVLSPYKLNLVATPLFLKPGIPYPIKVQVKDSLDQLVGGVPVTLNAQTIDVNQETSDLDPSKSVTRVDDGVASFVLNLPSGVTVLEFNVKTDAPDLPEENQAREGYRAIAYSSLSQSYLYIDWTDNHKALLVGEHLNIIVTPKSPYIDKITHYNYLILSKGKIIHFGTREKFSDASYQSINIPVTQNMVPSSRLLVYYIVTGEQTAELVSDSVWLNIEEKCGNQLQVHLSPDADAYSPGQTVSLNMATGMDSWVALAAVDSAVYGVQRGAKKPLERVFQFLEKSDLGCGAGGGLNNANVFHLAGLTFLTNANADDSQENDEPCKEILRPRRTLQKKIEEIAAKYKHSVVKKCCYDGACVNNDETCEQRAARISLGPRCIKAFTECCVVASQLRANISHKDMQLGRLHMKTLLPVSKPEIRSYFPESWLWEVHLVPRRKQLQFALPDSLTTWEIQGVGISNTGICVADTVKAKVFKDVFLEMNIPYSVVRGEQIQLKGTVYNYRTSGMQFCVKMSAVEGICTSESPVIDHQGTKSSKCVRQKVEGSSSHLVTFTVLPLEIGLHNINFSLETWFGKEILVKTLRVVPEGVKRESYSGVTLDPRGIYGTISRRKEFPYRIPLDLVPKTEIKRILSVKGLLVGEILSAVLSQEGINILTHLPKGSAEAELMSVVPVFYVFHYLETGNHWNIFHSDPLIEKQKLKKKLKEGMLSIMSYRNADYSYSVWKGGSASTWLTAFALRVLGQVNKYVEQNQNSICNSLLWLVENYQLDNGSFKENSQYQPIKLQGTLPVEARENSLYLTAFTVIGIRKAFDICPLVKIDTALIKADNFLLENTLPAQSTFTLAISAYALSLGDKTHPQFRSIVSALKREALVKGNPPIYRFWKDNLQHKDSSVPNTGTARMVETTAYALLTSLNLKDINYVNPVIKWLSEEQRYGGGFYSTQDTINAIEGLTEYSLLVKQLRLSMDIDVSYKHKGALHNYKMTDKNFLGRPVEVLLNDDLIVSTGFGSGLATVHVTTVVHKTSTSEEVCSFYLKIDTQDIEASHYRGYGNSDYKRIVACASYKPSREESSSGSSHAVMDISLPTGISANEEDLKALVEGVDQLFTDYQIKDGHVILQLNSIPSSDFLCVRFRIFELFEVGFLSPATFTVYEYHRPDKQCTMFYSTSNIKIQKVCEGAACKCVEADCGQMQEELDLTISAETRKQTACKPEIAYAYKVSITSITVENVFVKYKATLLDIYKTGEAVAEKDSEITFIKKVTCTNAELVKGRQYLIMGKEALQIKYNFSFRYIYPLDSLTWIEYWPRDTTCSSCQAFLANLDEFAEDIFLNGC
Sequence of purified human C5 (P01031 19-1676): as above
Sequence of human C5 complement protein (P01031 19-1676): as above

| Structure (SMILES) | Kd [1] | IC50 (Human C5 [2]) | IC50 (purified human C5) | Kd (Human C5 [3]) |
| --- | --- | --- | --- | --- |
| CCCCCOc1cc(N2CCCN(Cc3cccc(-c4cnn(C5CCN(C)CC5)c4)c3F)C2=O)ccc1OC [CU0127] | 0.0095 µM | 0.0302 µM |  |  |
| CCCCCOc1cc(N2CCCN(Cc3cccc4c3OCO4)C2=O)ccc1OC [CU0065] | 0.37 µM | 0.123 µM |  |  |
| CCCCCOc1cc(N2CCCN(Cc3ccc(Cc4nnco4)cc3OC)C2=O)ccc1OC [CU0120] | 0.0036 µM | 0.0118 µM |  |  |
| CCCCCOc1cc(N2CCCN(Cc3ccnc4c3ccn4CC(=O)N3CCOC(C)(COC)C3)C2=O)ccc1OC (centres unmarked) [CU0049] | 0.021 µM | 0.0447 µM |  |  |
| CCCCCOc1cc(N2CCCN(Cc3ccnc4c3ccn4C3CCN(C)C3=O)C2=O)ccc1OC (single isomer, unassigned) [CU0039(1)] | 0.028 µM | 0.03 µM |  |  |
| CCCCCOc1cc(N2CCCN(Cc3ccc(CCC(=O)N(CC)CC)cc3OC)C2=O)ccc1OC [CU0008] | 0.0065 µM | 0.0629 µM |  |  |
| CCCCCOc1cc(N2CCCN(Cc3ccnc4c3ccn4CC(=O)N3CCN(C)C(=O)C3)C2=O)ccc1OC [CU0060] | 0.014 µM | 0.0403 µM |  |  |
| CCCCCOc1cc(N2CCCN(Cc3cccc4c3ncn4CC(=O)N3CCN(C(C)=O)CC3)C2=O)ccc1OC [CU0063] | 0.0105 µM | 0.0283 µM |  |  |
| CCCCCOc1cc(N2CCCN(Cc3cc(F)ccc3Cl)C2=O)ccc1OC [CU0014] | 0.174 µM | 0.0776 µM |  |  |
| CCCCCOc1cc(N2CCCN(Cc3ccnc4c3ccn4CC(=O)N(C)C)C2=O)ccc1OC [CU0035] | 0.0335 µM | 0.0308 µM |  |  |
| CCCCCOc1cc(N2CCCN(Cc3cccc4c3ccn4CC(=O)N3CCOC(COC)C3)C2=O)ccc1OC (centres unmarked) [CU0031] | 0.006 µM | 0.0157 µM |  |  |
| CCCCCOc1cc(N2CCCN(Cc3cccnc3OC)C2=O)ccc1OC [CU0018] | 0.0275 µM | 0.0406 µM |  |  |
| CCCCCOc1cc(N2CCCN(Cc3cccc4c3ccn4CC(=O)N3CCOCC3)C2=O)ccc1OC [CU0029] | 0.0021 µM | 0.015 µM |  |  |
| CCCCCOc1cc(N2CCCN(Cc3cccc4c3ccn4CC(=O)N3CCOC(C)(C)C3)C2=O)ccc1OC [CU0030] | 0.0018 µM | 0.0269 µM |  |  |
| CCCCCOc1cc(N2CCCN(Cc3cc(F)ccc3OC)C2=O)ccc1OC [CU0003] | 0.014 µM | 0.0284 µM |  |  |
| CCCCCOc1cc(N2CCCN(Cc3ccnc4[nH]ccc34)C2=O)ccc1OC [CU0032] | 0.0475 µM | 0.0518 µM |  |  |
| CCCCCOc1cc(N2CCN(Cc3ccnc4c3ccn4CC(=O)N3CCOCC3)C2=O)ccc1OC [CU0042] | 0.106 µM | 0.0631 µM |  |  |

| Structure (SMILES) | Kd [1] | IC50 (Human C5 [2]) | IC50 (purified human C5) | Kd (Human C5 [3]) |
| --- | --- | --- | --- | --- |
| CCCC(F)(F)COc1cc(N2CCCN(Cc3ccc(CC(=O)N4CCCOCC4)cc3OC)C2=O)ccc1OC [CU0112] | 0.0026 µM | 0.0259 µM |  |  |
| CCCCCOc1cc(N2CCCN(Cc3ccnc4c3ccn4CC(=O)N3CCOC(CCO)C3)C2=O)ccc1OC (centres unmarked) [CU0046] | 0.0155 µM | 0.0389 µM |  |  |
| CCCCCOc1cc(N2CCCN(Cc3ccnc4c3ccn4CC(=O)N3CCNC(=O)C3)C2=O)ccc1OC [CU0059] | 0.0135 µM | 0.0329 µM |  |  |
| COc1ccc(NC(=O)NC(CO)c2ccc(Cl)cc2)cc1OCCCC(C)C (centres unmarked) |  |  | 3.39 µM | 0.32 µM |
| COc1ccc(NC(=O)NCc2ccncc2)cc1C#CCCC(C)C [SM0046] |  |  | 2.25 µM | 8.6 µM |
| COc1ccc(NC(=O)NCc2cscn2)cc1OCCCC(C)C [SM0059] |  |  | 4.39 µM | 0.113 µM |
| COc1ccc(NC(=O)N[C@@H](CO)c2ccccc2)cc1C(F)(F)F [SM0073] |  |  | 9.26 µM | 3.2 µM |
| COc1ccc(NC(=O)NCc2ccccc2O)cc1CCCCC(C)C [SM0005] |  |  | 0.0658 µM | 0.037 µM |
| COc1ccc(NC(=O)NC(CO)c2ccccn2)cc1OCCCC(C)C (centres unmarked) [SM0040] |  |  | 1.62 µM | 0.11 µM |
| C=C(NC(=O)Nc1ccc(OC)c(OCCCC(C)C)c1)c1ccccc1 [SM0061] |  |  | 4.99 µM | 3.9 µM |
| COc1ccc(NC(=O)N[C@@H](CO)c2ccccc2)cc1OCCCCC(F)(F)F [SM0025] |  |  | 0.675 µM | 0.62 µM |
| COc1ccc(NC(=O)N[C@@H](CO)c2ccccc2)cc1CCCCC(C)C [SM0010] |  |  | 0.226 µM | 0.107 µM |
| COc1ccc(NC(=O)NCC(O)c2ccccc2)cc1OCCCC(C)C (centres unmarked) [SM0081] |  |  | 13 µM | 1.6 µM |
| COc1ccc(NC(=O)N[C@@H](CO)c2ccccc2)cc1OCCCCCC(C)C [SM0033] |  |  | 1.1 µM | 0.41 µM |
| COc1ccc(NC(=O)NCc2ccsc2)cc1OCCCC(C)C [SM0039] |  |  | 1.49 µM | 0.21 µM |
| COc1ccc(NC(=O)N[C@@H]2c3ccccc3C[C@@H]2O)cc1OCCCC(C)C [SM0066] |  |  | 6.87 µM | 0.29 µM |
| COc1ccc(NC(=O)NCc2ccc(S(N)(=O)=O)cc2)cc1OCCCC(C)C [SM0048] |  |  | 2.54 µM | 7.2 µM |
